Values joined by “and” are separate entries in the source; they are usually repeats but may differ in a detail not shown here. Equal values may be shown once. Where a name gives a salt, the structure may show the parent alone.
Assay: Example 2 plasma concentrations and pharmacokinetics after topical ocular, subcutaneous, intravitreal administration
Format: in vivo, male New Zealand White rabbits
Procedure: To measure the concentration of Compound 1 in plasma and ocular tissues following topical ocular, subcutaneous, and intravitreal administration, New Zealand White rabbits were administered Compound 1, and plasma and ocular samples were collected at pre-determined time points. Compound 1 formulations were prepared fresh on each day of dosing.
Ocular tissue samples from both eyes of each animal were collected and weights were recorded. Plasma and ocular tissue sample concentrations of Compound 1 were determined by LC-MS/MS.
New Zealand White rabbits weighing 2.5 to 3.5 kg were used on this study. Rabbits were housed one per cage. Animals were not fasted and only healthy animals with no ocular illness were used. Two rabbits per group were sacrificed at each of four ocular tissue sampling time points for a total of eight rabbits per group.
Animals were anesthetized for ocular (topical) and intravitreal dosing following the 12IA7 IACUC protocol. Each rabbit received a bolus dose of test formulation either via topical ocular administration 3 times daily on Days 1 and 2 (at 0, 6, and 12 hours), and once on Day 3 (at 0 hours) into both eyes; via intravitreal administration into both eyes once on Day 1 (at 0 hours); or via subcutaneous administration 2 times daily on Days 1 and 2 (at 0 and 8 hours) and once daily on Day 3 (at 0 hours). Doses were given within an approximately 1 hour window each day where applicable.
Each blood sample was collected on Day 3 post dose at pre-determined time points from the rabbits via an ear vessel and placed into chilled polypropylene tubes containing sodium heparin as an anticoagulant. Samples were spun by centrifuge at 4° C. and 3,000× g for 5 minutes. Samples were maintained chilled throughout processing. Each plasma sample was placed on dry ice and stored in a freezer at −60° C. to −80° C. pending bioanalysis.
An LC-MS/MS method was developed for the determination of Compound 1 in rabbit aqueous tissues (plasma, aqueous and vitreous humor) and solid ocular tissue samples. A pre-study standard curve was analyzed to determine the specificity, range, and lower limit of quantitation of the method. Plasma and tissue homogenate study samples were extracted and analyzed. All the samples were treated identically to the standards.
One eight-point standard curve was used in each analytical batch. To be accepted, each batch must have had at least five of eight standards with accuracy within ±20% of nominal, except at the lower limit of quantification (LLOQ), where ±25% was acceptable.
Pharmacokinetic parameters were calculated from the time course of the plasma concentration. The maximum plasma concentration (Cmax) and time to the maximum plasma drug concentration (Tmax) were the observed values for each concentration-time profiles. The area under the plasma drug concentration-time curve (AUClast, with last being from time 0 to the last quantifiable point) was calculated using the trapezoidal formula. The mean residence time MRTlast was calculated as a ratio of AUMClast (area under the first movement curve) to AUClast.

[1] = Group 1: topical ocular 1.2 mg/eye (~0.7 mg/kg/dose), 15% HPβCD + 1% dextrose solution
[2] = Group 1: topical ocular 1.2 mg/eye (~0.7 mg/kg/dose), 15% HPβCD + 1% dextrose, 0.50 hr
[3] = Group 1: topical ocular 1.2 mg/eye (~0.7 mg/kg/dose), 15% HPβCD + 1% dextrose, 1.0 hr
[4] = Group 1: topical ocular 1.2 mg/eye (~0.7 mg/kg/dose), 15% HPβCD + 1% dextrose, 2.0 hr
[5] = Group 1: topical ocular 1.2 mg/eye (~0.7 mg/kg/dose), 15% HPβCD + 1% dextrose, 4.0 hr
[6] = Group 2: subcutaneous 5 mg/kg/dose, 15% HPβCD + 1% dextrose solution
[7] = Group 2: subcutaneous 5 mg/kg/dose, 15% HPβCD + 1% dextrose solution, 0.25 hr
[8] = Group 2: subcutaneous 5 mg/kg/dose, 15% HPβCD + 1% dextrose solution, 0.50 hr
[9] = Group 2: subcutaneous 5 mg/kg/dose, 15% HPβCD + 1% dextrose solution, 1.0 hr
[10] = Group 2: subcutaneous 5 mg/kg/dose, 15% HPβCD + 1% dextrose solution, 2.0 hr
[11] = Group 2: subcutaneous 5 mg/kg/dose, 15% HPβCD + 1% dextrose solution, 4.0 hr
[12] = Group 2: subcutaneous solution, normalized by nominal dose 5 mg/kg
[13] = Group 4: intravitreal 2.5 mg/eye (~1.55 mg/kg), 10% HPβCD + 2% dextrose solution
[14] = Group 4: intravitreal 2.5 mg/eye (~1.55 mg/kg), 10% HPβCD + 2% dextrose solution, 1.0 hr
[15] = Group 4: intravitreal 2.5 mg/eye (~1.55 mg/kg), 10% HPβCD + 2% dextrose solution, 3.0 hr
[16] = Group 4: intravitreal 2.5 mg/eye (~1.55 mg/kg), 10% HPβCD + 2% dextrose solution, 6.0 hr
[17] = Group 4: intravitreal 2.5 mg/eye (~1.55 mg/kg), 10% HPβCD + 2% dextrose solution, 24.0 hr
[18] = Group 4: intravitreal 2.5 mg/eye (~1.55 mg/kg), 10% HPβCD + 2% dextrose solution, 48.0 hr

**Q.** What does the source list for `COC(=O)N[C@@H](Cc1ccccc1)C(=O)N[C@@H](Cc1ccc(NS(=O)(=O)O)cc1)c1csc(-c2cccs2)n1` [Compound 1 sodium salt]?
**A.** plasma AUClast (± SE) [1]: 11.8 ± 5.70 ng·h/mL and 11.8 ng·h/mL; plasma Cmax (± SE) [1]: 7.48 ± 5.53 ng/mL and 7.48 ng/mL; plasma MRTlast [1]: 2.98 h; plasma tmax [1]: 4.00 h; plasma tmax (Group 1: topical ocular 1.2 mg/eye (~0.7 mg/kg/dose), 15% HPβCD + 1% dextrose solution, listed as Compound 1 (sodium salt)): 4 h; plasma Average conc. [2]: 3.03 ng/mL; plasma Conc., individual rabbit [2]: 3.84 ng/mL and 2.21 ng/mL; plasma Average conc. [3]: 1.46 ng/mL; plasma Conc., individual rabbit [3]: 1.28 ng/mL and 1.63 ng/mL; plasma Average conc. [4]: 1.14 ng/mL; plasma Conc., individual rabbit [4]: 2.04 ng/mL and 0.241 ng/mL; plasma Average conc. [5]: 7.48 ng/mL; plasma Conc., individual rabbit [5]: 13.0 ng/mL and 1.95 ng/mL; plasma AUClast, dose normalized (Group 1: topical ocular, normalized by nominal dose 0.7 mg/kg): 16.8 ± 8.15 kg·ng·h/mL/mg and 16.8 kg·ng·h/mL/mg; plasma AUClast (± SE) [6]: 1555 ± 195 ng·h/mL and 1555 ng·h/mL; plasma AUC∞ [6]: 1560 ng·h/mL; plasma Cmax (± SE) [6]: 1525 ± 115 ng/mL and 1525 ng/mL; plasma MRTlast [6]: 0.87 h; plasma t1/2 [6]: 0.47 h; plasma tmax [6]: 0.25 h; plasma Average conc. [7]: 1525 ng/mL; plasma Conc., individual rabbit [7]: 1640 ng/mL and 1410 ng/mL; plasma Average conc. [8]: 1097 ng/mL; plasma Conc., individual rabbit [8]: 883 ng/mL and 1310 ng/mL; plasma Average conc. [9]: 646 ng/mL; plasma Conc., individual rabbit [9]: 664 ng/mL and 628 ng/mL; plasma Average conc. [10]: 180 ng/mL; plasma Conc., individual rabbit [10]: 55.5 ng/mL and 305 ng/mL; plasma Average conc. [11]: 7.76 ng/mL; plasma Conc., individual rabbit [11]: 7.98 ng/mL and 7.53 ng/mL; plasma AUClast, dose normalized [12]: 311 ± 38.9 kg·ng·h/mL/mg and 311 kg·ng·h/mL/mg; plasma AUC∞, dose normalized [12]: 312 kg·ng·h/mL/mg; plasma AUClast (± SE) [13]: 953 ± 91.1 ng·h/mL and 953 ng·h/mL; plasma AUC∞ [13]: 956 ng·h/mL; plasma Cmax (± SE) [13]: 39.8 ± 2.30 ng/mL and 39.8 ng/mL; plasma MRTlast [13]: 15.1 h; plasma t1/2 [13]: 8.08 h; plasma tmax [13]: 3.00 h; plasma Average conc. [14]: 32.3 ng/mL; plasma Conc., individual rabbit [14]: 33.2 ng/mL and 31.3 ng/mL; plasma Average conc. [15]: 39.8 ng/mL; plasma Conc., individual rabbit [15]: 37.5 ng/mL and 42.1 ng/mL; plasma Average conc. [16]: 36.8 ng/mL; plasma Conc., individual rabbit [16]: 44.3 ng/mL and 29.3 ng/mL; plasma Average conc. [17]: 16.9 ng/mL; plasma Conc., individual rabbit [17]: 19.0 ng/mL and 14.7 ng/mL; plasma Average conc. [18]: 2.58 ng/mL; plasma Conc., individual rabbit [18]: 2.70 ng/mL and 2.45 ng/mL; plasma Average conc. (Group 4: intravitreal 2.5 mg/eye (~1.55 mg/kg), 10% HPβCD + 2% dextrose solution, 72.0 hr): 0.27 ng/mL

— patent US10952992B2, “Methods of treating intraocular pressure with activators of Tie-2” (Aerpio Pharmaceuticals, Inc., priority 2015, dated 2021)
